Values quoted from earlier work, collected in patent US12716021B2, “Aqueous modified acid compositions and methods of using the same” (FLUID ENERGY GROUP LTD., priority 2019, dated 2026).

Conditions: death in 2-3 minutes

SMILES: Cl [hydrogen chloride gas, hydrogen chloride]
- levels at which death can occur: 1300-2000 ppm
